The subject of one assay is Oct-4/GFP+ OS521 cells. Kind of assay: Tumor formation in NOD/SCID mice after in vitro pretreatment of Oct-4/GFP-enriched OS521 cells with differentiation inducers. Conditions: 3×10^4 cells per mouse. It is filed as in vivo. An excerpt:
It was hypothesized that if the Oct-4/GFP+ tumorigenic cells reflected a stem-like phenotype, their tumorigenic ability might also be inhibited by forced cellular differentiation. Therefore prior to delivery into the NOD/SCID mouse model, the Oct-4/GFP-enriched cell populations were pretreated in vitro with three different compounds known to be potent inducers of differentiation: ATRA, leukemia inhibitory factor (LIF), and recombinant bone morphogenetic protein (BMP) 4/7 heterodimer and evaluated their effect of each on tumorigenicity.
Following delivery of Oct-4/GFP transfected OS521 cells into NOD/SCID mice, cells isolated from the resultant tumors were sorted by FACS and the GFP-enriched population was plated in 12 well plates and treated with either LIF (10^4 to 0.5×10^2 U/ml), ATRA (1 μM), or recombinant BMP 4/7 (100 ng/ml) for 72 hours. Untreated cells were used as controls. Following the incubation period, 5 NOD/SCID mice per group were injected at 3×10^4 cells per mouse with cells from each treated pool and the mice were monitored for subsequent tumor formation. […] The BMPs are members of the TGF-β superfamily and are known to be potent agents of cellular differentiation, particularly with respect to chondro- and osteoinduction of mesenchymal progenitor cells. BMP 4/7 appears to inhibit the tumorigenesis of the Oct-4/GFP+ OS521 cells after transient induction.

A further assay concerns Oct-4/EGFP expression. The assay is described as follows: Oct-4/EGFP expression in osteosarcoma cultures treated in vitro. The assay is classed as cell-based. The note with it: osteosarcoma cultures in DMEM with 75-100 ng/ml BMP4/7; FIG. 13. The protocol: (§1) Cells were cultured in DMEM and 75-100 ng/ml of BMP4/7 (control cells were not cultured with BMP4/7).
Another assay concerns osteosarcoma cultures. Kind of assay: Tumor generation by osteosarcoma cells cultured with BMP4/7. The assay is classed as in vivo. The note with it: cells cultured in DMEM with 75-100 ng/ml BMP4/7; 10 weeks post-treatment. The protocol:
as §1

As to `CC1=C(/C=C/C(C)=C/C=C/C(C)=C/C(=O)O)C(C)(C)CCC1` [ATRA, reference compound], the tumor formation entry with Oct-4/GFP+ OS521 cells (GFP-enriched OS521 cells treated with ATRA 1 μM for 72 hours) was “tumor formation by 5 weeks”.

For the compound leukemia inhibitory factor [LIF], the tumor formation result in the assay on Oct-4/GFP+ OS521 cells (GFP-enriched OS521 cells treated with LIF 10^4 to 0.5×10^2 U/ml for 72 hours) is listed as “tumor formation by 5 weeks”.

On to “recombinant bone morphogenetic protein (BMP) 4/7 heterodimer [BMP 4/7]”, for which the tumor formation entry with Oct-4/GFP+ OS521 cells (GFP-enriched OS521 cells treated with recombinant BMP 4/7 100 ng/ml for 72 hours, followed twelve weeks) is recorded as “none of the mice in the BMP 4/7 treated group developed tumors by twelve weeks”. The Oct-4/EGFP expression result in the assay with Oct-4/EGFP expression is recorded as “affects Oct-4/EGFP expression”. Moreover, the “tumor generation by treated cells” value with osteosarcoma cultures was “have not yet generated tumors”.
